Assay [1] has as its system PI3Kα H1047R mutated cell line T-47D cells. Briefly: Cell Proliferation Assay (CellTiter-Glo), T-47D. It is filed as cell-based. To be noted: for IC50: Homo sapiens, T47D, 72 h, T-47D, 3 days treatment; for Selectivity: SK-BR-3/T-47D (cell proliferation): cell proliferation IC50 ratio. In outline: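 T-47D cells seeded overnight at 3×10^3/well, then exposed 3 days to 9-point 1:3 dilutions, final […] to 1 nM in 0.1% DMSO. CellTiter-Glo luminescence; relative IC50 from percent inhibition versus medium-only and 0.1% DMSO controls, 4-parameter logistic fit.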
Background: ATP-based viability assays read luminescence as a measure of living cells.

In assay [2] the target is PI3Kα (p110/p85) kinase (wild type, "WT") (Homo sapiens, UniProt P42336). The assay can be described thus: PI3Kα (p110/p85) kinase ADP-Glo Assay. Conditions: 25 uM ATP. It is filed as biochemical. Summed up: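 IC50 values come from a four-parameter logistic fit of ADP-Glo chemiluminescence, reflecting ADP formed. Enzyme, lipid substrate and […] compound were preincubated 30 min at room temperature, then 25 µM ATP was added for a 120 min reaction in 50 mM HEPES pH7.5, 3 mM MgCl2.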
On the technique in general: ADP-Glo first removes unused ATP, then detects ADP through luciferase.

The subject of a further assay is WT cell line SK-BR-3. The assay can be described thus: Phospho-AKT (Ser473) Inhibition Assay (HTRF), SK-BR-3. It is filed as cell-based. To be noted: Homo sapiens; SK-BR-3, 1 hour treatment; read-out: p-AKT Inhibition assay (S473) IC50 SK-BR-3. Summed up: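 SK-BR-3 (PI3Kα WT) cells seeded overnight in MEM with insulin, then treated 1 h with 11-point 1:3 dilutions (10 μM to 0.1 nM, 0.1% DMSO). Lysates read for phospho-AKT Ser473 by HTRF after 4 h antibody incubation at room temperature. IC50 from 4-parameter fit, % inhibition normalized to DMSO (max) and 10 μM GDC0077 (min).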
On the technique in general: In TR-FRET formats the signal depends on donor and acceptor labels being close together.

Assay [3] relates to PI3Kα H1047R mutated cell line T-47D. The assay can be described thus: Phospho-AKT (Ser473) Inhibition Assay (HTRF), T-47D. To be noted: for IC50: Homo sapiens, T47D, T-47D, 1 hour treatment, read-out: p-AKT Inhibition assay (S473) IC50 T-47D; for Selectivity: SK-BR-3/T-47D (p-AKT): p-AKT (S473) IC50 ratio. The class given is cell-based. Summed up:
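Cells seeded overnight in insulin-supplemented MEM, then treated 1 h with 11-point 1:3 compound dilutions (10 μM to 0.1 nM final, 0.1% DMSO). Lysates assayed for phospho-AKT Ser473 by HTRF; IC50 from 4-parameter logistic fit, normalised to DMSO (max) and 10 μM GDC0077 (min).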

Each structure is given as a SMILES string. Where only a bound is given, the exact number is not on record here.

This is an account of results in US20260125346A1, “Isoquinolinone Derivatives and 4H-Quinolizinone Derivatives and Pharmaceutical Compositions Thereof for the Treatment of Disease” (BeOne Medicines I GmbH, priority 2023, published 2026).

As a reminder, the IC50 is the concentration at which inhibition is half-maximal.

Sequence of PI3Kα (p110/p85) kinase (wild type, "WT") (P42336 whole entry): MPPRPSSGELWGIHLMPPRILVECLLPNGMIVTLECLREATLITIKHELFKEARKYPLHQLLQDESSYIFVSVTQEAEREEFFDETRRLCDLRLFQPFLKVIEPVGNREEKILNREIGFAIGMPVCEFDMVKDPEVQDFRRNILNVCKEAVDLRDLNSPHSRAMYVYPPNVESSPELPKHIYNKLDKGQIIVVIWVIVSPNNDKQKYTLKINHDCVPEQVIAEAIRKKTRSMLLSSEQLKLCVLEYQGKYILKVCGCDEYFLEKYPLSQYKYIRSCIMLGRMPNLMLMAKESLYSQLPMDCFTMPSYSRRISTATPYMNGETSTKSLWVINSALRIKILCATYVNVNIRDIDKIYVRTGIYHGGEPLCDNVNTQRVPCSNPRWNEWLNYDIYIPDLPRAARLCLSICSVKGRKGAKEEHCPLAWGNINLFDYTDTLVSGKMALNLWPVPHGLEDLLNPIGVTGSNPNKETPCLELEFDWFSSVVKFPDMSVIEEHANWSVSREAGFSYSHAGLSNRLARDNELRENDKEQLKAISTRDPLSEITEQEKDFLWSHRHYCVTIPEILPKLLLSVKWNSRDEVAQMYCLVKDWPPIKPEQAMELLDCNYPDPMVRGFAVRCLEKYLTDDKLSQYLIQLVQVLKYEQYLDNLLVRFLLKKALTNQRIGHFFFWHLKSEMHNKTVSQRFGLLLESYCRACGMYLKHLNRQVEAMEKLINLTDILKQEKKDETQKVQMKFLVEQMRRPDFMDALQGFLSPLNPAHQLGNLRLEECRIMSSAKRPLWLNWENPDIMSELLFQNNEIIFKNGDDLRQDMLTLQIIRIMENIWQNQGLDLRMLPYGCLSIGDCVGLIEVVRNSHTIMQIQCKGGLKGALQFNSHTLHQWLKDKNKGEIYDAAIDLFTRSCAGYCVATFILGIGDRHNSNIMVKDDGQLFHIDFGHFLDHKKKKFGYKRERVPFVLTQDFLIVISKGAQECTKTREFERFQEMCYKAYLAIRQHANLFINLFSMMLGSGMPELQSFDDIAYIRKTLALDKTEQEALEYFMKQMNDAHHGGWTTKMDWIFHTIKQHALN
Sequence of PI3Kα (p110/p85) kinase (wild type, "WT") (P27986 whole entry partner): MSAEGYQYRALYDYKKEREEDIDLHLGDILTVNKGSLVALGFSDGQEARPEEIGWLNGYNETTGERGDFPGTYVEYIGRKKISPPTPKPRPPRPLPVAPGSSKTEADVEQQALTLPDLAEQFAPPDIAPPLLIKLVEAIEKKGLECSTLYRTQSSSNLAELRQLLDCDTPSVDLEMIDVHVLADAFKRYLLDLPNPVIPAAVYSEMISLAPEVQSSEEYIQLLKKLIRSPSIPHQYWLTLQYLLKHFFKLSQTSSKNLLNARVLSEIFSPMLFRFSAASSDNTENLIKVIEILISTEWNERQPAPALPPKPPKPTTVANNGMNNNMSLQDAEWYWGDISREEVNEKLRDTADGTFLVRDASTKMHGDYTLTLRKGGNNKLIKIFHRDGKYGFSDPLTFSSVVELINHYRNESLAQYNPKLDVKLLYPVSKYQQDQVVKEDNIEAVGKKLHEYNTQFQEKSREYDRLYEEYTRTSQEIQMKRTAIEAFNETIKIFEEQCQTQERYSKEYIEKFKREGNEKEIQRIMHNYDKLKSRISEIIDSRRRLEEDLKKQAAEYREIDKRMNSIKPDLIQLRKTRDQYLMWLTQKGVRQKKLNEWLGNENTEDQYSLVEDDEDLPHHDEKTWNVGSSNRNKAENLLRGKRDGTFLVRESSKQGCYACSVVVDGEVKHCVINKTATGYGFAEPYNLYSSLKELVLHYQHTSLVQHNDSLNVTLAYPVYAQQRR

`Cc1cc([C@@H](C)Nc2ccccc2C(=O)O)c2cc(-c3ccc(F)cc3)n(CC#N)c(=O)c2c1` [Example 64, (R)-2-((1-(2-(cyanomethyl)-3-(4-fluorophenyl)-7-methyl-1-oxo-1,2-dihydroisoquinolin-5-yl)ethyl)amino)benzoic acid]: the concentration for half-maximal inhibition (IC50) in assay [1] is 70 nM; in assay [2], 2.48 µM; in the assay on WT cell line SK-BR-3, more than 10 µM; in assay [3] it was 32.4 nM. The “Selectivity: SK-BR-3/T-47D (cell proliferation)” value in assay [1] was more than 143. Moreover, the “Selectivity: SK-BR-3/T-47D (p-AKT)” value in assay [3] is on record as more than 308.
Regarding `Cc1cc(C(C)Nc2ccccc2C(=O)O)c2cc(-c3cnc(C(C)(C)O)nc3)n(C)c(=O)c2c1` (stereo not shown) [Example 66, 2-((1-(3-(2-(2-hydroxypropan-2-yl)pyrimidin-5-yl)-2,7-dimethyl-1-oxo-1,2-dihydroisoquinolin-5-yl)ethyl)amino)benzoic acid], the concentration for half-maximal inhibition (IC50) in assay [1] was 908 nM; in assay [2] it was 21.5 µM; in the assay on WT cell line SK-BR-3 it was more than 10 µM; in assay [3], 2800 nM. In assay [1], the “Selectivity: SK-BR-3/T-47D (cell proliferation)” value is more than 11. Further, in assay [3], the “Selectivity: SK-BR-3/T-47D (p-AKT)” value is on record as more than 3.57.
As for `Cc1cc([C@@H](C)Nc2ccccc2C(=O)O)c2cc(-c3cnc(C(C)(C)O)nc3)n(C)c(=O)c2c1` [Example 67, (R)-2-((1-(3-(2-(2-hydroxypropan-2-yl)pyrimidin-5-yl)-2,7-dimethyl-1-oxo-1,2-dihydroisoquinolin-5-yl)ethyl)amino)benzoic acid], the half-maximal inhibitory concentration (IC50) was 279 nM in assay [1], 13.6 µM in assay [2], more than 10 µM with WT cell line SK-BR-3 and 1540 nM in assay [3]. Besides, the “Selectivity: SK-BR-3/T-47D (cell proliferation)” value in assay [1] was more than 36. In addition, in assay [3], the “Selectivity: SK-BR-3/T-47D (p-AKT)” value is more than 6.51.
On to `Cc1cc(C(C)Nc2ccccc2C(=O)O)c2cc(-c3ccc(F)cc3)n(C3CCOC3)c(=O)c2c1` (stereo not shown) [Example 69, 2-((1-(3-(4-fluorophenyl)-7-methyl-1-oxo-2-(tetrahydrofuran-3-yl)-1,2-dihydroisoquinolin-5-yl)ethyl)amino)benzoic acid], for which the IC50 in assay [1] is 1690 nM; in assay [2], 18.8 µM; in the assay with WT cell line SK-BR-3 it was more than 10 µM; in assay [3], 103 nM. In addition, in assay [1], the “Selectivity: SK-BR-3/T-47D (cell proliferation)” value was more than 5.9. Further, the “Selectivity: SK-BR-3/T-47D (p-AKT)” value in assay [3] is recorded as more than 97.
In the case of `Cc1cc(C(C)Nc2ccccc2C(=O)O)c2cc(-c3ccc4c(c3)CN(C)C4=O)n(C)c(=O)c2c1` (stereo not shown) [Example 70, 2-((1-(2,7-dimethyl-3-(2-methyl-1-oxoisoindolin-5-yl)-1-oxo-1,2-dihydroisoquinolin-5-yl)ethyl)amino)benzoic acid], the IC50 in assay [1] is 245 nM; in assay [2], 21.1 µM; with WT cell line SK-BR-3, more than 10 µM; in assay [3], 1100 nM. Further, the “Selectivity: SK-BR-3/T-47D (cell proliferation)” value in assay [1] was more than 41. In addition, the “Selectivity: SK-BR-3/T-47D (p-AKT)” value in assay [3] is on record as more than 9.11.
`Cc1cc(C(C)Nc2ccccc2C(=O)O)c2cc(-c3ccc(F)cc3)n(-c3nccs3)c(=O)c2c1` (stereo not shown) [Example 71, 2-((1-(3-(4-fluorophenyl)-7-methyl-1-oxo-2-(thiazol-2-yl)-1,2-dihydroisoquinolin-5-yl)ethyl)amino)benzoic acid]: the half-maximal inhibitory concentration (IC50) in assay [1] worked out at 267 nM; in assay [2], 14.2 µM; with WT cell line SK-BR-3 it was 5.59 µM; in assay [3], 102 nM. Also, the “Selectivity: SK-BR-3/T-47D (cell proliferation)” value in assay [1] was more than 34. For the same compound, the “Selectivity: SK-BR-3/T-47D (p-AKT)” value in assay [3] was 55.0.
Take `Cc1cc(C(C)Nc2ccccc2C(=O)O)c2cc(-c3ccc(N4CCC(C)(O)CC4)nc3)n(C)c(=O)c2c1` (stereo not shown) [Example 72, 2-((1-(3-(6-(4-hydroxy-4-methylpiperidin-1-yl)pyridin-3-yl)-2,7-dimethyl-1-oxo-1,2-dihydroisoquinolin-5-yl)ethyl)amino)benzoic acid]: the IC50 is 175 nM in assay [1], 20.5 µM in assay [2], more than 10 µM in the assay on WT cell line SK-BR-3 and 633 nM in assay [3]. In assay [1], the “Selectivity: SK-BR-3/T-47D (cell proliferation)” value is recorded as more than 57. The “Selectivity: SK-BR-3/T-47D (p-AKT)” value in assay [3] is reported as more than 15.79.
As to `Cc1cc(C(C)Nc2ccccc2C(=O)O)c2cc(-c3ccc(C4(O)CCOCC4)cc3)n(C)c(=O)c2c1` (stereo not shown) [Example 73, 2-((1-(3-(4-(4-hydroxytetrahydro-2H-pyran-4-yl)phenyl)-2,7-dimethyl-1-oxo-1,2-dihydroisoquinolin-5-yl)ethyl)amino)benzoic acid], the IC50 was 171 nM in assay [1], 26.1 µM in assay [2], more than 10 µM in the assay with WT cell line SK-BR-3 and 924 nM in assay [3]. In addition, in assay [1], the “Selectivity: SK-BR-3/T-47D (cell proliferation)” value is on record as more than 59. Moreover, the “Selectivity: SK-BR-3/T-47D (p-AKT)” value in assay [3] was more than 10.82.
With `COC1(c2ccc(-c3cc4c(C(C)Nc5ccccc5C(=O)O)cc(C)cc4c(=O)n3C)cc2)CCOCC1` (stereo not shown) [Example 74, 2-((1-(3-(4-(4-methoxytetrahydro-2H-pyran-4-yl)phenyl)-2,7-dimethyl-1-oxo-1,2-dihydroisoquinolin-5-yl)ethyl)amino)benzoic acid], the half-maximal inhibitory concentration (IC50) in assay [1] turned out to be 86.9 nM; in assay [2], 13.1 µM; in the assay with WT cell line SK-BR-3, 4.39 µM; in assay [3], 307 nM. Besides, the “Selectivity: SK-BR-3/T-47D (cell proliferation)” value in assay [1] is recorded as more than 115. Besides, the “Selectivity: SK-BR-3/T-47D (p-AKT)” value in assay [3] was found to be 14.3.
For the compound `Cc1cc(C(C)Nc2ccccc2C(=O)O)c2cc(-c3ccc4c(c3)C(=O)N(C)C4)n(C)c(=O)c2c1` (stereo not shown) [Example 75, 2-((1-(2,7-dimethyl-3-(2-methyl-3-oxoisoindolin-5-yl)-1-oxo-1,2-dihydroisoquinolin-5-yl)ethyl)amino)benzoic acid], the IC50 in assay [1] was 270 nM; in assay [2], 31.4 µM; in the assay with WT cell line SK-BR-3, more than 10 µM; in assay [3], 547 nM. Further, the “Selectivity: SK-BR-3/T-47D (cell proliferation)” value in assay [1] is given as more than 37. Moreover, the “Selectivity: SK-BR-3/T-47D (p-AKT)” value in assay [3] is on record as more than 18.29.
As for `Cc1cc(C(C)Nc2ccccc2C(=O)O)c2cc(C3=CCN(c4ccccc4)C3)n(C)c(=O)c2c1` (stereo not shown) [Example 76, 2-((1-(2,7-dimethyl-1-oxo-3-(1-phenyl-2,5-dihydro-1H-pyrrol-3-yl)-1,2-dihydroisoquinolin-5-yl)ethyl)amino)benzoic acid], the IC50 in assay [1] came to 674 nM; in assay [2], 11.8 µM; with WT cell line SK-BR-3 it was 5.34 µM; in assay [3] it was 123 nM. Further, the “Selectivity: SK-BR-3/T-47D (cell proliferation)” value in assay [1] was more than 14.8. Besides, the “Selectivity: SK-BR-3/T-47D (p-AKT)” value in assay [3] turned out to be 43.5.
In the case of `Cc1cc(C(C)Nc2ccccc2C(=O)O)c2cc(-c3ccn(-c4ccccc4)c3)n(C)c(=O)c2c1` (stereo not shown) [Example 77, 2-((1-(2,7-dimethyl-1-oxo-3-(1-phenyl-1H-pyrrol-3-yl)-1,2-dihydroisoquinolin-5-yl)ethyl)amino)benzoic acid], the IC50 in assay [1] turned out to be 1400 nM; in assay [2] it was 6.95 µM; in the assay on WT cell line SK-BR-3 it was 2.04 µM; in assay [3], 84.3 nM. Besides, the “Selectivity: SK-BR-3/T-47D (cell proliferation)” value in assay [1] is reported as more than 7.1. For the same compound, the “Selectivity: SK-BR-3/T-47D (p-AKT)” value in assay [3] is 24.2.
For `Cc1cc(C(C)Nc2ccccc2C(=O)O)c2cc(-c3ccc(CN4CCOCC4)nc3)n(C)c(=O)c2c1` (stereo not shown) [Example 78, 2-((1-(2,7-dimethyl-3-(6-(morpholinomethyl)pyridin-3-yl)-1-oxo-1,2-dihydroisoquinolin-5-yl)ethyl)amino)benzoic acid], the IC50 is 329 nM in assay [1], 65.9 µM in assay [2], more than 10 µM in the assay with WT cell line SK-BR-3 and 1950 nM in assay [3]. In addition, the “Selectivity: SK-BR-3/T-47D (cell proliferation)” value in assay [1] was more than 30. Moreover, in assay [3], the “Selectivity: SK-BR-3/T-47D (p-AKT)” value is listed as more than 5.12.
As for `Cc1cc(C(C)Nc2ccccc2C(=O)O)c2cc(-c3ccc(P(C)(C)=O)cc3)n(C)c(=O)c2c1` (stereo not shown) [Example 79, 2-((1-(3-(4-(dimethylphosphoryl)phenyl)-2,7-dimethyl-1-oxo-1,2-dihydroisoquinolin-5-yl)ethyl)amino)benzoic acid], the IC50 in assay [1] is more than 10000 nM; in assay [2], 59.2 µM; with WT cell line SK-BR-3 it was more than 10 µM; in assay [3], more than 10000 nM.
`Cc1cc(C(C)Nc2ccccc2C(=O)O)c2cc(C#Cc3cnn(C)c3)n(C)c(=O)c2c1` (stereo not shown) [Example 80, 2-((1-(2,7-dimethyl-3-((1-methyl-1H-pyrazol-4-yl)ethynyl)-1-oxo-1,2-dihydroisoquinolin-5-yl)ethyl)amino)benzoic acid]: the half-maximal inhibitory concentration (IC50) in assay [1] came to 254 nM; in assay [2], 3.28 µM; in the assay on WT cell line SK-BR-3, 3.08 µM; in assay [3], 69.8 nM. For the same compound, the “Selectivity: SK-BR-3/T-47D (cell proliferation)” value in assay [1] was more than 39.4. Moreover, the “Selectivity: SK-BR-3/T-47D (p-AKT)” value in assay [3] is 44.1.
